The source of these data is patent US20220177510A1, “DERIVATIVES OF GYLCERO-MANNO-HEPTOSE ADP FOR USE IN MODULATING IMMUNE RESPONSE” (priority 2019, published 2022).

“Also recorded” adds a separate entry of the source.

The target in test [1] is T1, ALPK1 (Homo sapiens, UniProt Q96QP1).
T1 construct: endogenous in cells; host or cells: HEK293 (A1); HEK293 stably expressing an NF-kB-alkaline phosphatase reporter (A2)
In words: IL-8 secretion by HEK293 cells (IL-8 ELISA) as indication of ALPK1 activation. The format is cell-based. The settings on record: HEK293 cells treated 4 hours, FIG. 6, Table 2A. How it is done: HEK293 cells were treated with H1b-ADP derivatives (A1, A2, A3, and A4) or with Compound 28 for 4 hours followed by analysis of IL-8 secretion using an IL-8 enzyme linked immunoassay (ELISA). IL-8 secretion is an indication of ALPK1 activation. The EC50 of each compound was determined using GraphPad Prism.
(ELISA stands for enzyme-linked immunosorbent assay.)

Test [2] concerns the target T2, ALPK1 (Mus musculus, UniProt Q9CXB8).
T2 construct: C57/B6 mice (n=3 mice/group) were injected subcutaneously; endogenous in cells; host or cells: C57/B6 mice, whole animal
T2 sequence (Q9CXB8 1-1231): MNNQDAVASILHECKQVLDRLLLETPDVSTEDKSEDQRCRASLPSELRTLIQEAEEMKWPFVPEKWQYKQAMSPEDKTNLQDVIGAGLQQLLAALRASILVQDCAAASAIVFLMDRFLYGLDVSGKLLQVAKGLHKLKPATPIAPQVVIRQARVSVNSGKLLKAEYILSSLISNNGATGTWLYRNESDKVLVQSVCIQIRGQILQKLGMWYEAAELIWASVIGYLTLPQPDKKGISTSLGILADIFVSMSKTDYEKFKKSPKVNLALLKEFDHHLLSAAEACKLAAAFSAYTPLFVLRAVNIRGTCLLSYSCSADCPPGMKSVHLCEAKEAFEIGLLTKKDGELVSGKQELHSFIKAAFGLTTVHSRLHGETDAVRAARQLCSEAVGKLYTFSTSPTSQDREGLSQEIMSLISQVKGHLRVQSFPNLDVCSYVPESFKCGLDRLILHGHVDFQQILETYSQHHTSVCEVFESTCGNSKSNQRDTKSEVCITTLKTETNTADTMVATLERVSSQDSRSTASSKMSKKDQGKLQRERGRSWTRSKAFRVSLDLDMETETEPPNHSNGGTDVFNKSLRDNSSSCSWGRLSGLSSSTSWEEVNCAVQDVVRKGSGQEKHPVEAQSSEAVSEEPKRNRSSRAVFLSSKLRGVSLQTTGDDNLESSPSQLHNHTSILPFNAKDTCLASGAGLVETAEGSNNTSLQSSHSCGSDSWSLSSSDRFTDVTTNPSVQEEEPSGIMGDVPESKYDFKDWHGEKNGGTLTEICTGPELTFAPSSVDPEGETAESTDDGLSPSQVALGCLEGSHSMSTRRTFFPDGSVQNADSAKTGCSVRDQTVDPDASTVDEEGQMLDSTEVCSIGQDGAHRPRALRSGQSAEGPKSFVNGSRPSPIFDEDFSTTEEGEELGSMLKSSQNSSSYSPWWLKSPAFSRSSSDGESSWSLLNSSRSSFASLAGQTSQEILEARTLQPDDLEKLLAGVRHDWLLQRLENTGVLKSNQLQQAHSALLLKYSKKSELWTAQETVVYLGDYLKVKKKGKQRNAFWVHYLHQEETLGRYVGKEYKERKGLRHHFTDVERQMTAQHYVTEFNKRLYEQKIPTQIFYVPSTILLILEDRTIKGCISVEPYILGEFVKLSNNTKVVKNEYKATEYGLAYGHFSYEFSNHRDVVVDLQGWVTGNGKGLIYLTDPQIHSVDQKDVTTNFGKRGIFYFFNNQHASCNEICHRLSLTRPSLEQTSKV
In words: Serum RANTES (CCL5) levels after subcutaneous injection as measure of ALPK1 activation in vivo. The settings on record: 10 nmole subcutaneous, serum at 24 hours or 48 hours. How it is done:
The ability of Compounds 15 and 28 to stimulate ALPK1 activation in vivo was tested by monitoring serum levels of the chemokine RANTES (CCL5), which is elevated upon activation of ALPK1. Briefly, C57/B6 mice (n=3 mice/group) were injected subcutaneously with PBS (negative control) or 10 nmole of Compound 15 or Compound 28. Serum was collected at 24 hours or 48 hours post injection.

Test [3] deals with HBsAg, adw. In words: Immunization of mice with HBsAg, adw with or without compound; specific total IgG serum titers by ELISA. The format is in vivo, mouse. How it is done:
Eight-week-old C57BL/6J mice (females) were intradermally (I.D.) immunized at day 0 with HBsAg, adw (1 mg/dose), or HBsAg, adw at 1 mg/dose combined with compound 28 (1 nmol/dose). Mice were boosted with a second immunization at day 14 and the sera collected at day 35. HBsAg, adw-specific total IgG serum titers (OD450) were determined by ELISA. Anti-HBsAg, adw IgG titers were more than 2× higher when HBsAg, adw was combined with 1 nmol/dose of compound 28 than when HBsAg, adw was injected alone (FIG. 3).

The test system of test [4] is HBV. In words: HBV-AAV mouse model: HBV DNA qPCR, serum HBsAg and HBeAg ELISA. The class given is in vivo. Conditions: 0.1 mg/kg intraperitoneal on days 28 and 31, serum at day 35, versus PBS control. As to the method:
Administration of Compound 28 (0.1 mg/kg, twice weekly “BIW”) led to downregulation of HBV DNA expression and a decrease in serum levels of HBsAg, and HBeAg in the HBV-AAV mouse model. At day 1, male C57BL/6 mice were intravenously injected with AAV8-1.3HBV (1×10^11 v/g). After days 28 and 31, each mouse was then intraperitoneally injected with 0.1 mg/kg compound 28 or PBS control. At day 35, mouse serum was collected for HBV DNA qPCR analysis, HBsAg and HBeAg serum analysis by ELISA.
For orientation: In qPCR the cycle at which signal appears reflects the starting amount.

The test system of test [5] is eosinophils, dendritic cells, neutrophils. In words: Porcine pancreas elastase (PPE) induced immune cells in bronchoalveolar lavage, flow cytometry. The class given is in vivo, mouse. The settings on record: 30 μg/dose PPE, BAL day 2. As to the method: Eight-week-old male C57BL/6 mice were grouped (N=8/group) and were intraperitoneally (I.P.) injected with compound 28 at 0, 4, or 20 nmol/dose on days −1, 0, and 1. In addition, mice were intratracheally (I.Tr.) administrated with 0 or 30 μg/dose of porcine pancreas elastase (PPE) dissolved in 50 μL saline on day 0. Mice were sacrificed on day 2 and the immune cells were collected by bronchoalveolar lavage (BAL). Cells were then subjected to fluorophore-conjugated antibody staining and analyzed by flow cytometry. Data were processed with a FlowJo […] (Treestar). Immune cells were gated as singlets>live cells>CD11c^highSiglecF^lowMHCII^high (dendritic cells), CD11c^lowCD11b^highLy-6G^high (neutrophils), and CD11c^lowCD11b^highLy-6G^lowSiglecF^high (eosinophils).

The target in test [6] is T1, ALPK1. In words: NF-kB promoter driven alkaline phosphatase reporter in HEK293 cells (pNPP assay). The class given is cell-based. The settings on record: HEK293-NFkB-AP reporter cells treated 7 hours. How it is done: NF-kB activation was assayed using HEK293 cells stably expressing an NF-kB reporter construct comprising an NF-kB promoter driving expression of alkaline phosphatase (AP). In this system, activation of NF-kB promoter activity drives the expression of AP which is detected using a chromogenic substrate, para-nitrophenyl phosphate (pNPP).
To assess the ALPK1 agonist activity of test compounds, the HEK293 cells were seeded in 96-well plates and allowed to attach overnight. Cells were then exposed to graded concentrations of compounds A1, A2, A3, A4, A18, A26, A27, A28, and A30. Compound 28 was included as a reference. Following treatment, cell culture supernatants were collected and analyzed for alkaline phosphatase activity using the pNPP assay. The results are shown in FIGS. 7A-7B and Table 2B-C below. The EC50 for each compound was determined using GraphPad Prism.

The mark [7] stands for this setting: 4 nmol/dose intraperitoneal days -1, 0, 1.
The mark [8] stands for this setting: 4 nmol/dose intraperitoneal days -1, 0, 1, listed as compound 28.
Where [9] appears, read: 20 nmol/dose intraperitoneal days -1, 0, 1.
The mark [10] stands for this setting: 20 nmol/dose intraperitoneal days -1, 0, 1, listed as compound 28.

T1 sequence (Q96QP1 whole entry): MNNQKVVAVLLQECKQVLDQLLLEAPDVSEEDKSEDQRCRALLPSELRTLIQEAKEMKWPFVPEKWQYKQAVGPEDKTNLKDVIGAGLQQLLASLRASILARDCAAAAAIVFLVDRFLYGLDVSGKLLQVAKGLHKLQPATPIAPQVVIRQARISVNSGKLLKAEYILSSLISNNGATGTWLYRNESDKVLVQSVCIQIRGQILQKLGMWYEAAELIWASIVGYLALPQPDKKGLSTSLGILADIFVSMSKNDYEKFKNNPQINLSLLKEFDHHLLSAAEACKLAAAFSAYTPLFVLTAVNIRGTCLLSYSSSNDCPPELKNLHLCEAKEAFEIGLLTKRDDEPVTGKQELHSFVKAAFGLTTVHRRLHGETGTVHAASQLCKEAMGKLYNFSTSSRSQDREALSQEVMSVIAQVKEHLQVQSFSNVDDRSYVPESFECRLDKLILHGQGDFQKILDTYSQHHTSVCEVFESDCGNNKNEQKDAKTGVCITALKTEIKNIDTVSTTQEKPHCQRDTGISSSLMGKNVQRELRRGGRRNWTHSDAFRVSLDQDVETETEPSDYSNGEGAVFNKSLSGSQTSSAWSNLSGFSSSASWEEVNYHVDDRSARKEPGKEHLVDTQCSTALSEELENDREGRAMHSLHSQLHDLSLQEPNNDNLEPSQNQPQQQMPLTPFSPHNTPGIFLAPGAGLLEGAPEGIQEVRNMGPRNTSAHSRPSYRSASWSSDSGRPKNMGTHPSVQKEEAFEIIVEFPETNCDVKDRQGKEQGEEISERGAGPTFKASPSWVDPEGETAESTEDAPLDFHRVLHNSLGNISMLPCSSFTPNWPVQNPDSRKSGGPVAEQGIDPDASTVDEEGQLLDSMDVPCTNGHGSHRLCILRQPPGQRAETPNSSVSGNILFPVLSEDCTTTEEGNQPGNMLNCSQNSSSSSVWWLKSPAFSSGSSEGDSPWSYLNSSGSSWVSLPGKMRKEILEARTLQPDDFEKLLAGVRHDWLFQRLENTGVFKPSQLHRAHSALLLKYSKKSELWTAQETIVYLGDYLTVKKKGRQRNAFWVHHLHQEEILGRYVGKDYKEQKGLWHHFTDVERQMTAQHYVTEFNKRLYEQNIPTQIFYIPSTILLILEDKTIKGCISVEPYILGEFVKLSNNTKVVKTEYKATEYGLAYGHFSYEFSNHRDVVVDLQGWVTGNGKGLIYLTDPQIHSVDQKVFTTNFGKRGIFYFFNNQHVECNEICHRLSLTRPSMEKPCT

Regarding `CC(=O)OC[C@H](F)C1O[C@@H](OP(=O)(O)OP(O)(=S)OC[C@H]2O[C@@H](n3cnc4c(N)ncnc43)C(O)C2O)C(OC(C)=O)C(OC(C)=O)[C@@H]1OC(C)=O` (stereo partly drawn) [Compound 28], the EC50 in test [1] is 45 nM; in test [6] (FIG. 7A, Table 2B), 45 nM; in test [6] (FIG. 7B, Table 2C) it was 67 nM. For the same compound, the “duration of immune activation (serum RANTES), compared to Compound 15” value in test [2] is reported as “longer duration of immune activation”. In addition, in test [3] (1 nmol with HBsAg, adw versus HBsAg, adw alone), the “IgG response against HBsAg, adw (in words)” value is “increased IgG response”. The “Anti-HBsAg, adw IgG titers, HBsAg, adw combined with compound relative to HBsAg, adw alone” value in test [3] (1 nmol/dose intradermal, days 0 and 14, sera day 35) is on record as “more than 2 ×”. Also, the “HBV DNA expression” value in test [4] is listed as “marked decrease; also recorded: down-regulation”. The “serum levels of HBeAg” value in test [4] is “marked decrease; also recorded: lower levels”. Moreover, the “serum levels of HBsAg” value in test [4] is reported as “marked decrease; also recorded: lower levels”. The “production of dendritic cells after PPE administration” value in test [5] (setting [7]) is on record as “decrease”; in test [5] (setting [8]), “significantly suppressed”; in test [5] (setting [9]), “decrease”; in test [5] (setting [10]), “significantly suppressed”. For the same compound, the “production of eosinophils after PPE administration” value is on record as “decrease” in test [5] (setting [7]), “significantly suppressed” in test [5] (setting [8]), “decrease” in test [5] (setting [9]) and “significantly suppressed” in test [5] (setting [10]). The “production of neutrophils after PPE administration” value is recorded as “decrease” in test [5] (setting [7]), “only at the 20 nmol/dose level” in test [5] (setting [8]), “decrease” in test [5] (setting [9]) and “suppressed” in test [5] (setting [10]).

As a reminder, the EC50 is the concentration at which the effect is half-maximal. Read a high EC50 as a less potent agent.
